Source: US20080171370A1, “DETOXIFYING PRE-TREATED LIGNOCELLULOSE-CONTAINING MATERIALS” (Novozymes North America, Inc., priority 2006, published 2008)
“Also recorded” adds a separate entry of the source.

Assays:
[1] = tested on: RED STAR Ethanol Red yeast; assay: Fermentation of enzyme-detoxified fuwPCS filtrate at 37° C., Example 2; assay type: cell-based; conditions: detoxified 19 hours
Experimental: Dilute acid steam exploded corn stover (PCS) was diluted with water and adjusted to pH 5.0 with NH4OH. The total solids (TS) level was 16%. This sample was then saccharified for 72 hours at 50° C. with Cellulolytic Preparation A. Penicillin and citrate buffer were also added prior to saccharification. Following the saccharification step, the sample was filtered to remove the solids and the filtrate was used for fermentation. The fuwPCS was then pipetted into separate sterile, 15 mL conical centrifuge tubes containing a small CO2 vent hole.
Freeze-dried RED STAR™ Ethanol Red yeast was re-hydrated in 10×YP media for 30 minutes at 32° C. it was dosed into the fermentations at a dose of 0.2 g/L.
Filtered, unwashed PCS was detoxified for 19 hours using the optimal conditions for each enzyme. For amidase, the pH of the fuwPCS was first adjusted up to 7.0 using NaOH, the amidase was added at the tested dosages, and the tubes were incubated at 37° C. The pH of the fuwPCS was then readjusted to 5.0 using H2SO4 prior to fermentation. For the carbonic anhydrase the pH was left at 5.0, the enzyme was added and the tubes were incubated at 37° C. All enzymes were diluted with de-ionized water prior to dosing. Dosing ranges for each enzyme were as follows in units/mL of the final solution for amidase and kilo units/mL for carbonic anhydrase.
A total of 3.5 grams of sample was fermented for each treatment and the initial pH for all fermentations was 5.0. Treatments were run in triplicate. The final TS level was 13.7 wt.-%. These fermentations were run at a higher temperature of 37° C.
Fermentation samples were collected after 12 and 24 hours and analyzed for ethanol using an Agilent HPLC System with an analytical BIO-RAD Aminex HPX-87H column and a BIO-RAD Cation-H refill guard column.

[2] = tested on: RED STAR Ethanol Red yeast; assay: Fermentation of detoxified fully unwashed pretreated corn stover (fuwPCS) filtrate, Example 1; assay type: cell-based; conditions: for average ethanol yield: 24 hours fermentation, 0.2 g/L yeast, 32° C., pH 5.0
Experimental: Yeast Preparation: Freeze-dried RED STAR™ Ethanol Red yeast re-hydrated in 10×YP media for 30 minutes at 32° C. It was dosed into the fermentations at a dose of 0.2 g/L.
Dilute acid steam exploded corn stover (PCS) was diluted with water and adjusted to pH 5.0 with NH4OH. The total solids (TS) level was 15 wt.-%. This sample was then saccharified for 63 hours at 50° C. with Cellutolytic Preparation A. Penicillin was added at a rate of 1 gl/L also added prior to saccharification was citrate buffer at a rate of 50 mL of 1 M citrate buffer per 100 ml of substrate. Following the saccharification step, the sample was filtered via a 0.2 micron Nalgene vacuum fitter system (Product # 8-000043-0803) to remove the solids and used for fermentation. The fuwPCS was then pipetted into separate sterile, 15 mL conical centrifuge tubes containing a small CO2 vent hole.
The pH was adjusted to about 2 using H2SO4; gallic acid was dosed at concentrations of 2 mM (GaA-L) and at 10 mM (GaA-H). The gallic acid was prepared by sonicating […] of garlic acid in 100 ml of de-ionized water. The broth was allowed to stand at 20° C. overnight and then readjusted to pH 5 using NaOH before adding yeast.
The dosing for amidase was carried out by treating with 5.6 Units/5 g substrate (AMD-L) and also 56 Units/5 g substrate (AMD-H). The amidase treated samples were brought to a pH of 7 with NaOH and allowed to sit in an oven at a temperature of 37° C. for 18 hours as a pre-treatment.
Fermentations were carried out in sterile 15 mL conical plastic centrifuge tubes at 32° C. for 48 hours at pH 5.0. A total of 5 grams of sample was fermented for each treatment. Treatments were run in triplicate.
Fermentation samples were collected after 24 hours for the 0.2 g/L yeast dose and analyzed for acetic acid and ethanol using an Agilent HPLC System with an analytical BIO-RAD Aminex HPX-87H column and a BIO-RAD Cation H refill guard column.

amidase: amidase from Pseudomonas aeruginosa (Sigma Product # A6691)
effect on ethanol production by the yeast ([1]; all amidase doses tested (0.3-1.1-5.4-16.1), pH 7.0, 37° C., after 12 hours of fermentation): significant boosting effect
effect on ethanol production by the yeast ([1]; all amidase doses tested (0.3-1.1-5.4-16.1), pH 7.0, 37° C., after 24 hours of fermentation): boost in ethanol yield; also recorded: significant boosting effect
average ethanol yield ([2]; amidase high dose (AMD-H) 56 Units/5 g substrate, pre-treatment pH 7, 37° C., 18 hours): 23.6 g/L
average ethanol yield ([2]; amidase low dose (AMD-L) 5.6 Units/5 g substrate, pre-treatment pH 7, 37° C., 18 hours): 21.8 g/L

carbonic anhydrase: carbonic anhydrase from bovine erythrocytes (lyophilized powder, ≧2,500 W-A units/mg protein) Sigma Product # C3934
effect on ethanol production by the yeast ([1]; highest dose of carbonic anhydrase (33.3; 243 kilo units/g TS), pH 5.0, 37° C., after 12 hours of fermentation): boost in ethanol production; also recorded: significant boosting effects
effect on ethanol production by the yeast ([1]; highest dose of carbonic anhydrase (33.3; 243 kilo units/g TS), pH 5.0, 37° C., after 24 hours of fermentation): significant boosting effects

O=C(O)c1cc(O)c(O)c(O)c1 [Gallic acid, 3,4,5-trihydroxybenzoic acid]
average ethanol yield ([2]; gallic acid high dose (GaA-H) 10 mM, pH about 2, 20° C. overnight): 17.8 g/L
average ethanol yield ([2]; gallic acid low dose (GaA-L) 2 mM, pH about 2, 20° C. overnight): 19.4 g/L
amount of acetic acid present in the fermentation ([2]; gallic acid versus control, FIG. 2): significant drop
